Data published in paper PMC4490784, “Compensatory induction of MYC expression by sustained CDK9 inhibition via a BRD4-dependent mechanism” (eLife, 2015).

Legend:
Assay in all cases: KINOMEscan binding assay
FLT3(K663Q) = molecular target: T1, FLT3(K663Q) (Homo sapiens, UniProt P36888, K663Q); conditions: read-out: % Retention on Solid Support
T1 construct: purchased DiscoveRx KINOMEscan
Method in brief: (§1)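 Panel of >400 kinases screened by active-site competition binding, compound at 1 and 10 µM.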

EGFR(G719S) = molecular target: T2, EGFR(G719S) (Homo sapiens, UniProt P00533, G719S)
T2 construct: purchased DiscoveRx KINOMEscan
Method in brief: as §1

JNK3 = molecular target: T3, JNK3 (Homo sapiens, UniProt P53779)
T3 construct: purchased DiscoveRx KINOMEscan
Method in brief: as §1

NEK1 = molecular target: T4, NEK1 (Homo sapiens, UniProt Q96PY6); conditions: read-out: % Retention on Solid Support
T4 construct: purchased DiscoveRx KINOMEscan
Method in brief: as §1

BRAF(V600E) = molecular target: T5, BRAF(V600E) (Homo sapiens, UniProt P15056, V600E); conditions: read-out: % Retention on Solid Support
T5 construct: purchased DiscoveRx KINOMEscan
Method in brief: as §1

KIT(V559D,T670I) = molecular target: T6, KIT(V559D,T670I) (Homo sapiens, UniProt P10721, T670I/V559D); conditions: read-out: % Retention on Solid Support
T6 construct: purchased DiscoveRx KINOMEscan
Method in brief: as §1

PIK3CG = molecular target: T7, PIK3CG (Homo sapiens, UniProt P48736); conditions: read-out: % Retention on Solid Support
T7 construct: purchased DiscoveRx KINOMEscan
Method in brief: as §1

YANK3 = molecular target: T8, YANK3 (Homo sapiens, UniProt Q86UX6); conditions: read-out: % Retention on Solid Support
T8 construct: purchased DiscoveRx KINOMEscan
Method in brief: as §1

EGFR(S752-I759del) = molecular target: T9, EGFR(S752-I759del) (Homo sapiens, UniProt P00533, DEL752-759)
T9 construct: purchased DiscoveRx KINOMEscan
Method in brief: as §1

PIK3CA(E545A) = molecular target: T10, PIK3CA(E545A) (Homo sapiens, UniProt P42336, E545A); conditions: read-out: % Retention on Solid Support
T10 construct: purchased DiscoveRx KINOMEscan
Method in brief: as §1

CSNK1G3 = molecular target: T11, CSNK1G3 (Homo sapiens, UniProt Q9Y6M4)
T11 construct: purchased DiscoveRx KINOMEscan
Method in brief: as §1

ABL2 = molecular target: T12, ABL2 (Homo sapiens, UniProt P42684); conditions: read-out: % Retention on Solid Support
T12 construct: purchased DiscoveRx KINOMEscan
Method in brief: as §1

[1] = molecular target: T13, TYK2(JH1domain-catalytic) (Homo sapiens, UniProt P29597)
T13 construct: TYK2(JH1domain-catalytic); purchased DiscoveRx KINOMEscan
Method in brief: as §1

PKAC-alpha = molecular target: T14, PKAC-alpha (Homo sapiens, UniProt P17612); conditions: read-out: % Retention on Solid Support
T14 construct: purchased DiscoveRx KINOMEscan
Method in brief: as §1

[2] = molecular target: T15, ABL1(Q252H)-phosphorylated (Homo sapiens, UniProt P00519, Q252H); conditions: 1 µM i-CDK9; read-out: % Retention on Solid Support
T15 construct: purchased DiscoveRx KINOMEscan
Method in brief: as §1

CDK7 = molecular target: T16, CDK7 (Homo sapiens, UniProt P50613); conditions: read-out: % Retention on Solid Support
T16 construct: purchased DiscoveRx KINOMEscan
Method in brief: as §1

TIE2 = molecular target: T17, TIE2 (Homo sapiens, UniProt Q02763); conditions: read-out: % Retention on Solid Support
T17 construct: purchased DiscoveRx KINOMEscan
Method in brief: as §1

MAP3K15 = molecular target: T18, MAP3K15 (Homo sapiens, UniProt Q6ZN16); conditions: read-out: % Retention on Solid Support
T18 construct: purchased DiscoveRx KINOMEscan
Method in brief: as §1

ADCK3 = molecular target: T19, ADCK3 (Homo sapiens, UniProt Q8NI60); conditions: read-out: % Retention on Solid Support
T19 construct: purchased DiscoveRx KINOMEscan
Method in brief: as §1

MYO3B = molecular target: T20, MYO3B (Homo sapiens, UniProt Q8WXR4); conditions: read-out: % Retention on Solid Support
T20 construct: purchased DiscoveRx KINOMEscan
Method in brief: as §1

BTK = molecular target: T21, BTK (Homo sapiens, UniProt Q06187)
T21 construct: purchased DiscoveRx KINOMEscan
Method in brief: as §1

TIE1 = molecular target: T22, TIE1 (Homo sapiens, UniProt P35590); conditions: read-out: % Retention on Solid Support
T22 construct: purchased DiscoveRx KINOMEscan
Method in brief: as §1

CDK2 = molecular target: T23, CDK2 (Homo sapiens, UniProt P24941)
T23 construct: purchased DiscoveRx KINOMEscan
Method in brief: as §1

MET(Y1235D) = molecular target: T24, MET(Y1235D) (Homo sapiens, UniProt P08581, Y1235D)
T24 construct: purchased DiscoveRx KINOMEscan
Method in brief: as §1

EGFR(G719C) = molecular target: T25, EGFR(G719C) (Homo sapiens, UniProt P00533, G719C)
T25 construct: purchased DiscoveRx KINOMEscan
Method in brief: as §1

PHKG2 = molecular target: T26, PHKG2 (Homo sapiens, UniProt P15735); conditions: read-out: % Retention on Solid Support
T26 construct: purchased DiscoveRx KINOMEscan
Method in brief: as §1

MYO3A = molecular target: T27, MYO3A (Homo sapiens, UniProt Q8NEV4); conditions: read-out: % Retention on Solid Support
T27 construct: purchased DiscoveRx KINOMEscan
Method in brief: as §1

PFTK1 = molecular target: T28, PFTK1 (Homo sapiens, UniProt O94921)
T28 construct: purchased DiscoveRx KINOMEscan
Method in brief: as §1

T4 sequence (Q96PY6 whole entry): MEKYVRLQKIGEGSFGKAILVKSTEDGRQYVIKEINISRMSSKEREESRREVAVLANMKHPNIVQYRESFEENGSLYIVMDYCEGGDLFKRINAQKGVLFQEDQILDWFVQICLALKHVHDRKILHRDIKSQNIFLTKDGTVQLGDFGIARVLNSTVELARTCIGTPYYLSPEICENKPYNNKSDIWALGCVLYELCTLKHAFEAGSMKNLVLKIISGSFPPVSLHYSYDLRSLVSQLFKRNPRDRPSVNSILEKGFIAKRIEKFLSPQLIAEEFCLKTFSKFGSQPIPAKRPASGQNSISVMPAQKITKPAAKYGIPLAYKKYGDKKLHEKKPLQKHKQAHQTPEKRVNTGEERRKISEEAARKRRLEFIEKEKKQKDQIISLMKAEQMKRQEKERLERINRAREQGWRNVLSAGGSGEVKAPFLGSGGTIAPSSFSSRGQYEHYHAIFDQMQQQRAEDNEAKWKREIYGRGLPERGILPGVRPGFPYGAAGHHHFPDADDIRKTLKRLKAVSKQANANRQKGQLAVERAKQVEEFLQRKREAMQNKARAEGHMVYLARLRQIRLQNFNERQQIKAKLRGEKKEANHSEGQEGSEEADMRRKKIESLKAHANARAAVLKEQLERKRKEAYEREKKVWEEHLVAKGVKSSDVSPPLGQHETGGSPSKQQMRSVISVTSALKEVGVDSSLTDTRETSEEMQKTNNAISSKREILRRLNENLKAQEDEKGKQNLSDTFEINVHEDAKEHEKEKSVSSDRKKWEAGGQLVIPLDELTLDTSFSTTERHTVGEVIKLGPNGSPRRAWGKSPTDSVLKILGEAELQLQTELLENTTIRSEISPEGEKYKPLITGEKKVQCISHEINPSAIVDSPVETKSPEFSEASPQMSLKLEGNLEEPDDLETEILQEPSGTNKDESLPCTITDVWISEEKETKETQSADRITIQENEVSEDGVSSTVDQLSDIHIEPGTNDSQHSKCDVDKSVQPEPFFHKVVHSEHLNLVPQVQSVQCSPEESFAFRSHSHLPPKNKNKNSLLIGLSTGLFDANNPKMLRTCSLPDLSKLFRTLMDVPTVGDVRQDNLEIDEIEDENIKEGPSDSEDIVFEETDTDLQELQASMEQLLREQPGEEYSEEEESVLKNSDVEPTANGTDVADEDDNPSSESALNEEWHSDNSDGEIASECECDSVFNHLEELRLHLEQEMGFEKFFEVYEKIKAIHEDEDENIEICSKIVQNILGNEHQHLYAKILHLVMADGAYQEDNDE
T22 sequence (P35590 22-1138): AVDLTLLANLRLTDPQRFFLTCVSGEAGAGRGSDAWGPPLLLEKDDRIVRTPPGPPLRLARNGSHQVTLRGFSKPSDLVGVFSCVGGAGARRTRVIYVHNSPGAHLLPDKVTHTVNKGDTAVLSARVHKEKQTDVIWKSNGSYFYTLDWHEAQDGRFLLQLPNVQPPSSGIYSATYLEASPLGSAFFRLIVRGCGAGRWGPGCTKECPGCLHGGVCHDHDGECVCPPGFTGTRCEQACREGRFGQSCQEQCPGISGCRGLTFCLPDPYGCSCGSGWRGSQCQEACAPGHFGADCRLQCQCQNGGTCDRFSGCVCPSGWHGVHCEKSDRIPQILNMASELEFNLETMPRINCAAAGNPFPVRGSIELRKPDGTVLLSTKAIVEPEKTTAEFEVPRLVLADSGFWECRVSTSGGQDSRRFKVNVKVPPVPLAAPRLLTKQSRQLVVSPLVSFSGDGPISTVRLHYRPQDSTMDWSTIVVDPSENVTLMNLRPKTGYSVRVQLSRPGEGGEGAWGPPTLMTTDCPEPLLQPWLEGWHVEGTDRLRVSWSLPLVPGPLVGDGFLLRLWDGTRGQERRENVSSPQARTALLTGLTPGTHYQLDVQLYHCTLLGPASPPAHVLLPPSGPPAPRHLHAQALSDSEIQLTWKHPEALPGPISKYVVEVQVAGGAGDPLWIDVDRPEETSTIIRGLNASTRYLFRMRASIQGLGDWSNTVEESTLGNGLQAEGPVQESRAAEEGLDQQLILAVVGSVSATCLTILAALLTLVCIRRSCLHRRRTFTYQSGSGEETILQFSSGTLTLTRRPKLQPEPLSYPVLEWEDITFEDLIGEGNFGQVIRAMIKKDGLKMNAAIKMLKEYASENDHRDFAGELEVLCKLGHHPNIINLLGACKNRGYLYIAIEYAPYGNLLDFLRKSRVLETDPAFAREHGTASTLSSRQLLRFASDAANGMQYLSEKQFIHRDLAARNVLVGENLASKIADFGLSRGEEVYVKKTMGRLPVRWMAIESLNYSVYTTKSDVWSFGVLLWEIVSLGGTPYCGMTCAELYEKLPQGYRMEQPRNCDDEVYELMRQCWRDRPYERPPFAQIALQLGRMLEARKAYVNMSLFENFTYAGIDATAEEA
T11 sequence (Q9Y6M4 whole entry): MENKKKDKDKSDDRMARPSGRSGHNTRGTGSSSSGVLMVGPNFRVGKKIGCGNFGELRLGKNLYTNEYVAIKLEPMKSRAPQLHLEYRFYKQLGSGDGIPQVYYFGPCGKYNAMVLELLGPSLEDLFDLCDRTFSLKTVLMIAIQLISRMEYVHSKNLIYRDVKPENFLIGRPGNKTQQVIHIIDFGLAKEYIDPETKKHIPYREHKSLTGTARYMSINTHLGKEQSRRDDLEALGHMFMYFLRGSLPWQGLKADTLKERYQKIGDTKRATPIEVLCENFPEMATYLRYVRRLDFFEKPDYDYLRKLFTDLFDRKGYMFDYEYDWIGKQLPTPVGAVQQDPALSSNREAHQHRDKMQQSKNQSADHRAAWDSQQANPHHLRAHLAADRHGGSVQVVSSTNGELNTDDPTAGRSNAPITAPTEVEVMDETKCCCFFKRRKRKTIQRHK
T19 sequence (Q8NI60 163-647): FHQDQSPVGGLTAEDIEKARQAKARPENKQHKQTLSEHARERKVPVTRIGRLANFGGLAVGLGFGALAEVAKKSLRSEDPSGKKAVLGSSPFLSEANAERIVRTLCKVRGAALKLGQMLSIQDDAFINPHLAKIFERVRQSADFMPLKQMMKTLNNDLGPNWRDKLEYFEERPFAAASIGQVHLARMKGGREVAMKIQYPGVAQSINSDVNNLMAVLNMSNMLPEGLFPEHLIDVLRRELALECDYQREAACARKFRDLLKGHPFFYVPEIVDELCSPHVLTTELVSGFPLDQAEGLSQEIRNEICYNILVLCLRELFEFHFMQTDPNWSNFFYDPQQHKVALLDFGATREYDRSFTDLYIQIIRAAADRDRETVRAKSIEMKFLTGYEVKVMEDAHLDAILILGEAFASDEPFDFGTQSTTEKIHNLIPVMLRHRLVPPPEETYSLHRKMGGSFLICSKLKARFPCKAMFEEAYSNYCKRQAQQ
T7 sequence (P48736 whole entry): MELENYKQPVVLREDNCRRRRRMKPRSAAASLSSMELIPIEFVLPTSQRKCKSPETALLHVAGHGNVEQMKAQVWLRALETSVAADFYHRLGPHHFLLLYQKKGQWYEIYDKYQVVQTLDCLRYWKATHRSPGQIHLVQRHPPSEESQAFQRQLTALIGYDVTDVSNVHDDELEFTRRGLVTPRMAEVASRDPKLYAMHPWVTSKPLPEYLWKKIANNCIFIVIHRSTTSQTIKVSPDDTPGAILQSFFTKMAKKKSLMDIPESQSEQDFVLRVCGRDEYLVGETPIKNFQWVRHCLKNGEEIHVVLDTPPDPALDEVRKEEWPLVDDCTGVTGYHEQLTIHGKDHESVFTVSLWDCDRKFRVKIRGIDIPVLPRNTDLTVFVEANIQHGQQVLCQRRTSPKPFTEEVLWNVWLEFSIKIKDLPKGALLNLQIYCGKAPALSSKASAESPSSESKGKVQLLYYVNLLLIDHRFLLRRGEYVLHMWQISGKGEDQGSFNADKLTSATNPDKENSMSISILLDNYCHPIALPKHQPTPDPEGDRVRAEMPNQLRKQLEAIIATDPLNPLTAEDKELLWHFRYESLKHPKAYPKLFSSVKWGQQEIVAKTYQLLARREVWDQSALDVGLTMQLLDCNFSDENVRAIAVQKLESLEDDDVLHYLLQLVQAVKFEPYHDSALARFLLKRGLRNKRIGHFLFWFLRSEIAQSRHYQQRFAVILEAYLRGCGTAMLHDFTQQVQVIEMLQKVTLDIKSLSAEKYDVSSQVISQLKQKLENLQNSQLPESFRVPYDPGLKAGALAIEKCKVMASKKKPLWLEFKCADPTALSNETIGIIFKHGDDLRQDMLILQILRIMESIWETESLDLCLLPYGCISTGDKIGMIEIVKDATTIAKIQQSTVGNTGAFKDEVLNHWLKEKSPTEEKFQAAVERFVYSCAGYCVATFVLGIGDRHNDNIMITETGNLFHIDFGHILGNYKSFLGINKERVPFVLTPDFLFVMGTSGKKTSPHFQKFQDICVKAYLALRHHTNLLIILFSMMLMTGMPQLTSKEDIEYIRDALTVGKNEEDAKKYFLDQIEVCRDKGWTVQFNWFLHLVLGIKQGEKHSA
T13 sequence (P29597 871-1187 limits assumed): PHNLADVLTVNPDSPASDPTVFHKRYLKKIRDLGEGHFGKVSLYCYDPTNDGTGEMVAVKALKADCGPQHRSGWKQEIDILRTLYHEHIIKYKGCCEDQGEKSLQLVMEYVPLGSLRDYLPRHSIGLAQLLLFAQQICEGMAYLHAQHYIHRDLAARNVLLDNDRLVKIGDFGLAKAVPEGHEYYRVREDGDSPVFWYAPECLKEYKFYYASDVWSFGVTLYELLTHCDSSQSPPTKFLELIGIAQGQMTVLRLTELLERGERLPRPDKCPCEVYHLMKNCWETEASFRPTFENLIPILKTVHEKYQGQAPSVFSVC
T16 sequence (P50613 whole entry): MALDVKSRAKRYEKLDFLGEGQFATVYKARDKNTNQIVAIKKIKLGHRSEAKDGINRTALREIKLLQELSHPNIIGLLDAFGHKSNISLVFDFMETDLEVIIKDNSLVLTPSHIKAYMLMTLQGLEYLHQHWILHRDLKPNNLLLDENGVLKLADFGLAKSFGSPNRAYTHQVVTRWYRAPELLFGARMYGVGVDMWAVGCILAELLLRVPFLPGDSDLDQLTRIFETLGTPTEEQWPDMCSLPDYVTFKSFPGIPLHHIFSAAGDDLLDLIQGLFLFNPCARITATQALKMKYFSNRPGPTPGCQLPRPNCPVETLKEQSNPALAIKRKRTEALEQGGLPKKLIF

N[C@H]1CC[C@H](Nc2cc(-c3cccc(NCc4cccc(F)c4)n3)c(Cl)cn2)CC1 [i-CDK9, N2′-(trans-4-aminocyclohexyl)-5′-chloro-N6-(3-fluorobenzyl)-2,4′-bipyridine-2′,6-diamine]
remaining binding at 1 µM (FLT3(K663Q); 1 µM i-CDK9): 100% | remaining binding at 10 µM (FLT3(K663Q); 10 µM i-CDK9): 74% | % Retention on Solid Support (EGFR(G719S); 1 µM i-CDK9): 100% | % Retention on Solid Support (EGFR(G719S); 10 µM i-CDK9): 100% | % Retention on Solid Support (JNK3; 1 µM i-CDK9): 94% | % Retention on Solid Support (JNK3; 10 µM i-CDK9): 34% | remaining binding at 1 µM (NEK1; 1 µM i-CDK9): 70% | remaining binding at 10 µM (NEK1; 10 µM i-CDK9): 100% | remaining binding at 1 µM (BRAF(V600E); 1 µM i-CDK9): 100% | remaining binding at 10 µM (BRAF(V600E); 10 µM i-CDK9): 88% | remaining binding at 1 µM (KIT(V559D,T670I); 1 µM i-CDK9): 95% | remaining binding at 10 µM (KIT(V559D,T670I); 10 µM i-CDK9): 100% | remaining binding at 1 µM (PIK3CG; 1 µM i-CDK9): 100% | remaining binding at 10 µM (PIK3CG; 10 µM i-CDK9): 100% | remaining binding at 1 µM (YANK3; 1 µM i-CDK9): 89% | remaining binding at 10 µM (YANK3; 10 µM i-CDK9): 50% | % Retention on Solid Support (EGFR(S752-I759del); 1 µM i-CDK9): 77% | % Retention on Solid Support (EGFR(S752-I759del); 10 µM i-CDK9): 53% | remaining binding at 1 µM (PIK3CA(E545A); 1 µM i-CDK9): 100% | remaining binding at 10 µM (PIK3CA(E545A); 10 µM i-CDK9): 100% | % Retention on Solid Support (CSNK1G3; 1 µM i-CDK9): 91% | % Retention on Solid Support (CSNK1G3; 10 µM i-CDK9): 63% | remaining binding at 1 µM (ABL2; 1 µM i-CDK9): 100% | remaining binding at 10 µM (ABL2; 10 µM i-CDK9): 100% | % Retention on Solid Support ([1]; 1 µM i-CDK9): 62% | % Retention on Solid Support ([1]; 10 µM i-CDK9): 100% | remaining binding at 1 µM (PKAC-alpha; 1 µM i-CDK9): 86% | remaining binding at 10 µM (PKAC-alpha; 10 µM i-CDK9): 100% | remaining binding at 1 µM [2]: 100% | remaining binding at 1 µM (CDK7; 1 µM i-CDK9): 14% | remaining binding at 10 µM (CDK7; 10 µM i-CDK9): 11% | remaining binding at 1 µM (TIE2; 1 µM i-CDK9): 82% | remaining binding at 10 µM (TIE2; 10 µM i-CDK9): 100% | remaining binding at 1 µM (MAP3K15; 1 µM i-CDK9): 100% | remaining binding at 10 µM (MAP3K15; 10 µM i-CDK9): 100% | remaining binding at 1 µM (ADCK3; 1 µM i-CDK9): 100% | remaining binding at 10 µM (ADCK3; 10 µM i-CDK9): 86% | remaining binding at 1 µM (MYO3B; 1 µM i-CDK9): 100% | remaining binding at 10 µM (MYO3B; 10 µM i-CDK9): 36% | % Retention on Solid Support (BTK; 1 µM i-CDK9): 100% | % Retention on Solid Support (BTK; 10 µM i-CDK9): 100% | remaining binding at 1 µM (TIE1; 1 µM i-CDK9): 85% | remaining binding at 10 µM (TIE1; 10 µM i-CDK9): 100% | % Retention on Solid Support (CDK2; 1 µM i-CDK9): 85% | % Retention on Solid Support (CDK2; 10 µM i-CDK9): 19% | % Retention on Solid Support (MET(Y1235D); 1 µM i-CDK9): 100% | % Retention on Solid Support (MET(Y1235D); 10 µM i-CDK9): 11% | % Retention on Solid Support (EGFR(G719C); 1 µM i-CDK9): 86% | % Retention on Solid Support (EGFR(G719C); 10 µM i-CDK9): 46% | remaining binding at 1 µM (PHKG2; 1 µM i-CDK9): 100% | remaining binding at 10 µM (PHKG2; 10 µM i-CDK9): 72% | remaining binding at 1 µM (MYO3A; 1 µM i-CDK9): 91% | remaining binding at 10 µM (MYO3A; 10 µM i-CDK9): 96% | % Retention on Solid Support (PFTK1; 1 µM i-CDK9): 76% | % Retention on Solid Support (PFTK1; 10 µM i-CDK9): 5.4%
